Assay [1] relates to Ba/F3 expressing EGFR Del19/T790M/C797S mutations. Nature of the assay: Inhibitory activity on proliferation of Ba/F3 cell overexpressing EGFR C797S (Cell Titer-Glo). The note with it: Mus musculus, BaF3; 72 hours treatment, cell growth rate vs control; read-out: Ba/F3 (EGFR DTC) GI50. The assay is classed as cell-based. On the procedure: <Experimental Example 2> Evaluation of Inhibitory Activity on Proliferation of Ba/F3 Cell Overexpressing EGFR C797S
The following experiments were performed to evaluate the inhibitory activity of the compounds according to the present invention on the proliferation of Ba/F3 expressing EGFR Del19/T790M/C797S mutations.
Ba/F3 cells were cultured in RPMI-1640 medium supplemented with 10% fetal bovine serum (FBS), and 3000 cells were seeded into each well of a white clear bottom 96 well plate (Corning) 24 hours prior to compound treatment. The compounds were diluted in dimethyl sulfoxide (3-fold dilution, total of 12 concentrations) and injected at 1 μl each so that the final concentration was […] to 5 μM. After 72 hours post treatment with compounds, living cells were reacted in a 37° C., CO2 incubator for […], followed by 10 minutes at room temperature using Cell Titer-Glo luminescent cell-viability reagent (Promega), and the luminescence intensity thereof was measured using a reader (SynergyNeo2, Biotek). The result values were calculated as a cell growth rate (%) compared to the control group. GI50 values were calculated using the GraphPad Prism version 8.4.3 (GraphPad software Inc., San Diego) program.
For orientation: In ATP-based viability assays light output follows the ATP content of the culture.

Assay [2] deals with T1, human EGFR (d746-750/T790M/C797S) (Homo sapiens, UniProt P00533, C797S/DEL746-750/T790M).
T1 construct: human EGFR (d746-750/T790M/C797S) (668-end, SignalChem); purchased SignalChem
T1 sequence (P00533 with tags, fused parts or gaps DEL746-750/T790M/C797S): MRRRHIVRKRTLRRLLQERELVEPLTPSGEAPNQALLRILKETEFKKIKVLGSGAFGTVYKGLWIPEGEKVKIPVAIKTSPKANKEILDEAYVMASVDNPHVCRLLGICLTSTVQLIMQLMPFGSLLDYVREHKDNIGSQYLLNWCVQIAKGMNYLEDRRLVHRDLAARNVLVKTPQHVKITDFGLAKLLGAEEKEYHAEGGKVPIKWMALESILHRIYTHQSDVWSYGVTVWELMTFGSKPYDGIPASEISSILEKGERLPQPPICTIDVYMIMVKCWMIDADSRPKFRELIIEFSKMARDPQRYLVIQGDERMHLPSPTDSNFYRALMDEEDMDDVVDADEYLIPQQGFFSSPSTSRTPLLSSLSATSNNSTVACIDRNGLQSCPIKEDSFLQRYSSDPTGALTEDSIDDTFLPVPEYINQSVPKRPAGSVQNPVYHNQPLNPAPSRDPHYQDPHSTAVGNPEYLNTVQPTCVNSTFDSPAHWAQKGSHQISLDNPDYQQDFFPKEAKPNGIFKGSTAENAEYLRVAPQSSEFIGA
The assay can be described thus: EGFR C797S enzyme inhibition activity (ADP-Glo kinase assay). The assay is classed as biochemical. The note with it: purified enzyme 3 ng, ATP 5 μM, 25° C., 1 hour, luminescence; read-out: EGFR DTC Enzyme IC50. On the procedure: <Experimental Example 1> Evaluation of EGFR C797S Enzyme Inhibition Activity
The compounds according to the present invention were reacted together with purified human EGFR (d746-750/T790M/C797S) (668-end, SignalChem) enzyme and a specific substrate and evaluated for enzyme inhibitory activity as described below. The reaction buffer consisted of 40 mM Tris-HCl pH 7.4, 20 mM MgCl2, 0.5 mg/ml BSA, and 50 μM DTT, and all reactions of the test substances were performed in reaction buffers. The compounds were serially diluted in 12 steps from a 10 mM DMSO stock, and the enzyme activity was measured at the final compound concentrations of 10, 3, 1, 0.3, 0.1, 0.03, 0.01, 0.003, 0.001, 0.0003, 0.0001, and 0 μM. In the assay, human EGFR (d746-750/T790M/C797S) (3 ng) enzyme was reacted with purified ATP (5 μM) and enzyme substrate (0.2 μg) at 25° C. for 1 hour, and the enzyme activity was determined using the in vitro ADP-Glo™ kinase assay (Promega). The enzyme activity inhibition was measured via luminescence by reacting the enzyme activity reaction solution, ADP-Glo reaction solution, and enzyme activity detection solution in a 2:2:1 ratio. Based on the luminescence of the enzyme activity of the solvent control group that was not treated with the compound, the degree of the enzyme activity inhibition depending on the treatment concentration of each compound was calculated, wherein the concentration of each compound that inhibited the enzyme activity by 50% was determined as the IC50 (nM) value, which was obtained using GraphPad Prism 8.4.3 (GraphPad software Inc., San Diego).
For orientation: ADP-Glo turns the ADP formed in a reaction into a luminescent signal.

For `CS(=O)(=O)CC1CN(C(=O)c2cnc(Nc3ccnc(-c4cnn(S(=O)(=O)C5CC5)c4)n3)cc2NC2CCCC2)C1` [Example 6, (4-(cyclopentylamino)-6-((2-(1-(cyclopropylsulfonyl)-1H-pyrazol-4-yl)pyrimidin-4-yl)amino)pyridin-3-yl)(3-((methylsulfonyl)meth-yl)azetidin-1-yl)methanone], the GI50 in assay [1] lay within 500 to 5000 nM. The IC50 in assay [2] was < 50 nM.

As for `CS(=O)(=O)CC1CN(C(=O)c2cnc(Nc3ccnc(-c4cnn(S(=O)(=O)C5CC5)c4)n3)cc2NC2CCOC2)C1` (centres unmarked) [Example 7, (6-((2-(1-(cyclopropylsulfonyl)-1H-pyrazol-4-yl)pyrimidin-4-yl)amino)-4-((tetrahydrofuran-3-yl)amino)pyridin-3-yl)(3-((methylsulfonyl)meth-yl)azetidin-1-yl)methanone], in assay [1], the GI50 lay within 500 to 5000 nM. The IC50 in assay [2] was < 50 nM.

For `CC(C)Nc1cc(Nc2ccnc(-c3cnn(S(=O)(=O)C4CC4)c3)n2)ncc1C(=O)N1CC(C#N)C1` [Example 9, 1-(6-((2-(1-(cyclopropylsulfonyl)-1H-pyrazol-4-yl)pyrimidin-4-yl)amino)-4-(isopropylamino)nico-tinoyl)azetidine-3-carbonitrile], the GI50 in assay [1] is 500 to 5000 nM. Besides, the IC50 in assay [2] is < 50 nM.

`CC(C)Nc1cc(Nc2ccnc(N3CCOCC3)n2)ncc1C(=O)N1CC(CS(C)(=O)=O)C1` [Example 10, (4-(isopropylamino)-6-((2-morpholinopyrimidin-4-yl)amino)pyridin-3-yl)(3-((methylsulfonyl)meth-yl)azetidin-1-yl)methanone]: the GI50 in assay [1] is 500 to 5000 nM. For the same molecule, in assay [2], the 50% inhibitory concentration (IC50) was < 50 nM.

Consider `CC(C)Nc1cc(Nc2ccnc(-c3cnn(S(=O)(=O)C4CC4)c3)n2)ncc1C(=O)Nc1cc(CN2CCN(C)CC2)cc(C(F)(F)F)c1` [Example 25, 6-((2-(1-(cyclopropylsulfonyl)-1H-pyrazol-4-yl)pyrimidin-4-yl)amino)-4-(isopropylamino)-N-(3-((4-methylpiperazin-1-yl)methyl)-5-(trifluoromethyl)phe-nyl)nicotinamide], for which the GI50 in assay [1] fell in the range of 500 to 5000 nM. Further, in assay [2], the IC50 lay in the range of 50 to 500 nM.

Consider `CC(C)Nc1cc(Nc2ccnc(-c3cnn(S(=O)(=O)C4CC4)c3)n2)ncc1C(=O)Nc1cnn(S(=O)(=O)C2CC2)c1` [Example 32, N-(1-(cyclopropylsulfonyl)-1H-pyrazol-4-yl)-6-((2-(1-(cyclopropylsulfonyl)-1H-pyrazol-4-yL)pyrimidin-4-yl)amino)-4-(isopropylamino)nico-tinamide], for which, in assay [1], the GI50 lay within 500 to 5000 nM. Moreover, the 50% inhibitory concentration (IC50) in assay [2] was in the range of 50 to 500 nM.

As for `CC(C)Nc1cc(Nc2ccnc(-c3cnn(S(=O)(=O)C4CC4)c3)n2)ncc1C(=O)NCCCN(C)C` [Example 34, 6-((2-(1-(cyclopropylsulfonyl)-1H-pyrazol-4-yl)pyrimidin-4-yl)amino)-N-(3-(dimethylamino)pro-pyl)-4-(isopropylamino)nico-tinamide], the GI50 in assay [1] was in the range of 500 to 5000 nM. In addition, in assay [2], the IC50 is < 50 nM.

For the molecule `CC(C)Nc1cc(Nc2ccnc(-c3cnn(S(=O)(=O)C4CC4)c3)n2)ncc1C(=O)NCCS(C)(=O)=O` [Example 35, 6-((2-(1-(cyclopropylsulfonyl)-1H-pyrazol-4-yl)pyrimidin-4-yl)amino)-4-(isopropylamino)-N-(2-(methylsulfonyl)ethyl) nicotinamide], the GI50 in assay [1] was 500 to 5000 nM. Besides, in assay [2], the concentration for half-maximal inhibition (IC50) was < 50 nM.

Turning to `CC(C)Nc1cc(Nc2ccnc(-c3cnn(S(=O)(=O)C4CC4)c3)n2)ncc1C(=O)NC1CCS(=O)(=O)C1` (centres unmarked) [Example 36, 6-((2-(1-(cyclopropylsulfonyl)-1H-pyrazol-4-yl)pyrimidin-4-yl)amino)-N-(1,1-dioxydotetrahydrothi-ophen-3-yl)-4-(isopropylamino)nico-tinamide], the GI50 in assay [1] lay within 500 to 5000 nM. The 50% inhibitory concentration (IC50) in assay [2] was < 50 nM.

As to `CC(C)Nc1cc(Nc2ccnc(-c3cnn(S(=O)(=O)C4CC4)c3)n2)ncc1C(=O)Nc1cccc(N2CCN(C)CC2)c1` [Example 39, 6-((2-(1-(cyclopropylsulfonyl)-1H-pyrazol-4-yl)pyrimidin-4-yl)amino)-4-(isopropylamino)-N-(3-(4-methylpiperazin-1-yl)phenyl)nicotinamide], the GI50 in assay [1] is 500 to 5000 nM. In addition, the concentration for half-maximal inhibition (IC50) in assay [2] is < 50 nM.

Regarding `CC(C)Nc1cc(Nc2ccnc(-c3cnn(S(=O)(=O)C4CC4)c3)n2)ncc1C(=O)Nc1cc(N2CCN(C)CC2)cc(C(C)(C)C#N)c1` [Example 40, N-(3-(2-cyanopropan-2-yl)-5-(4-methylpiperazin-1-yl)phenyl)-6-((2-(1-(cyclopropylsulfonyl)-1H-pyrazol-4-yl)pyrimidin-4-yl)amino)-4-(isopropylamino)nico-tinamide], the GI50 in assay [1] lay within 500 to 5000 nM. Further, the 50% inhibitory concentration (IC50) in assay [2] was in the range of 50 to 500 nM.

Regarding `CC(C)Nc1cc(Nc2ccnc(-c3cnn(S(=O)(=O)C4CC4)c3)n2)ncc1C(=O)NC1CN(C(=O)OC(C)(C)C)C1` [Example 46, tert-butyl 3-(6-((2-(1-(cyclopropylsulfonyl)-1H-pyrazol-4-yl)pyrimidin-4-yl)amino)-4-(isopropylamino)nico-tinamido)azetidine-1-carboxylate], the GI50 in assay [1] was 500 to 5000 nM. Moreover, the IC50 in assay [2] was 50 to 500 nM.

As for `CC(C)Nc1cc(Nc2ccnc(-c3cnn(S(=O)(=O)C4CC4)c3)n2)ncc1C(=O)NC1CCN(C(=O)OC(C)(C)C)C1` (centres unmarked) [Example 47, tert-butyl 3-(6-((2-(1-(cyclopropylsulfonyl)-1H-pyrazol-4-yl)pyrimidin-4-yl)amino)-4-(isopropylamino)nico-tinamido)pyrrolidine-1-carboxylate], in assay [1], the GI50 was in the range of 500 to 5000 nM. Moreover, in assay [2], the IC50 is 50 to 500 nM.

For the molecule `CC(C)Nc1cc(Nc2ccnc(-c3cnn(S(=O)(=O)C4CC4)c3)n2)ncc1C(=O)NC1CN(S(C)(=O)=O)C1` [Example 48, 6-((2-(1-(cyclopropylsulfonyl)-1H-pyrazol-4-yl)pyrimidin-4-yl)amino)-4-(isopropylamino)-N-(1-(methylsulfonyl)azeti-din-3-yl)nicotinamide], in assay [1], the GI50 is < 500 nM. Besides, in assay [2], the half-inhibitory concentration (IC50) was < 50 nM.

With `CC(C)Nc1cc(Nc2ccnc(-c3cnn(S(=O)(=O)C4CC4)c3)n2)ncc1C(=O)NC1CCN(S(C)(=O)=O)C1` (centres unmarked) [Example 49, 6-((2-(1-(cyclopropylsulfonyl)-1H-pyrazol-4-yl)pyrimidin-4-yl)amino)-4-(isopropylamino)-N-(1-(methylsulfonyl)pyrro-lidin-3-yl)nicotinamide], the GI50 in assay [1] was in the range of 500 to 5000 nM. In addition, the IC50 in assay [2] is < 50 nM.

Regarding `COC(=O)CCNC(=O)c1cnc(Nc2ccnc(-c3cnn(S(=O)(=O)C4CC4)c3)n2)cc1NC(C)C` [Example 50, methyl 3-(6-((2-(1-(cyclopropylsulfonyl)-1H-pyrazol-4-yl)pyrimidin-4-yl)amino)-4-(isopropylamino)nico-tinamido)propanoate], the GI50 in assay [1] lay in the range of 500 to 5000 nM. For the same molecule, the IC50 in assay [2] is < 50 nM.

As to `CC(C)Nc1cc(Nc2ccnc(-c3cnn(S(=O)(=O)C4CC4)c3)n2)ncc1C(=O)NCC1CCN(C)CC1` [Example 51, 6-((2-(1-(cyclopropylsulfonyl)-1H-pyrazol-4-yl)pyrimidin-4-yl)amino)-4-(isopropylamino)-N-((1-methylpiperidin-4-yl)methyl)nicotinamide], the GI50 in assay [1] fell in the range of 500 to 5000 nM. The concentration for half-maximal inhibition (IC50) in assay [2] is < 50 nM.

Turning to `CC(C)Nc1cc(Nc2ccnc(-c3cnn(S(=O)(=O)C4CC4)c3)n2)ncc1C(=O)NC(CCN(C)C)c1ccccc1` (centres unmarked) [Example 53, 6-((2-(1-(cyclopropylsulfonyl)-1H-pyrazol-4-yl)pyrimidin-4-yl)amino)-N-(3-(dimethylamino)-1-phenylpropyl)-4-(isopropylamino)nico-tinamide], in assay [1], the GI50 fell in the range of 500 to 5000 nM. For the same molecule, the IC50 in assay [2] is < 50 nM.

For `CC(C)Nc1cc(Nc2ccnc(-c3cnn(S(=O)(=O)C4CC4)c3)n2)ncc1C(=O)NCc1ccc(C#N)cc1` [Example 55, N-(4-cyanobenzyl)-6-((2-(1-(cyclopropylsulfonyl)-1H-pyrazol-4-yl)pyrimidin-4-yl)amino)-4-(isopropylamino)nico-tinamide], the GI50 in assay [1] was 500 to 5000 nM. Besides, the IC50 in assay [2] is 50 to 500 nM.

A word on the IC50: it is the concentration needed to halve the response being measured.

For the origin of these results see patent publication US20250345329A1, “HETEROARYL DERIVATIVE COMPOUND AND USES THEREOF” (VORONOI, INC., priority 2022, published 2025).
